Some test systems named below: A549 NSCLC; CCRF-CEM leukemia; COLO 205 colon; M14 melanoma; MDA-MB-231 breast; RXF 393 renal; SNB-19 CNS; U251 CNS; UO-31 renal; SR leukemia.
What all share (test): NCI anticancer screen, dose series, 48 h

Structures are written as SMILES.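 Each compound was tested at five concentrations against cells in 96-well plates for 48 hours. Here, GI50 denotes the concentration required for 50% inhibition of growth. TGI: total growth inhibition.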

On to `C=C1C(=O)O[C@H]2[C@H]1CC/C(COC(=O)c1cc3cc(OC)ccc3[nH]1)=C\CC[C@@]1(C)O[C@@H]21`, for which the GI50 in the assay with A549 NSCLC is 1.66 µM; with CCRF-CEM leukemia, 0.348 µM; in the assay on COLO 205 colon, 1.18 µM; with M14 melanoma, 1.27 µM; in the assay with MDA-MB-231 breast it was 1.58 µM; in the assay on RXF 393 renal, 1.14 µM. Further, the GI50 was 1.57 µM in the assay on SNB-19 CNS, 1.6 µM with U251 CNS and 1.12 µM in the assay on UO-31 renal. The TGI was found to be 3.38 µM in the assay with A549 NSCLC; 1.57 µM with CCRF-CEM leukemia; 2.72 µM with COLO 205 colon; 2.98 µM with M14 melanoma; 3.2 µM in the assay on MDA-MB-231 breast; 2.39 µM in the assay with RXF 393 renal. The TGI in the assay on SNB-19 CNS amounted to 3.2 µM; with U251 CNS, 2.95 µM; in the assay with UO-31 renal, 2.37 µM.

As to `CCOc1cccc2nc3cccc(C(=O)NCCN(C)C)c3nc12`, the TGI in the assay with A549 NSCLC was more than 100 µM; in the assay with COLO 205 colon, 3.52 µM; in the assay with M14 melanoma, 6.04 µM; in the assay with RXF 393 renal, 3.21 µM; in the assay with SNB-19 CNS, 11.2 µM; with SR leukemia it was 26.1 µM. In addition, the TGI in the assay on U251 CNS was 9.26 µM; with UO-31 renal, more than 100 µM.

For the molecule `Clc1cc(Cl)c2c(Cl)cc(Cl)c3c2c1N=S=N3`, the TGI with A549 NSCLC, with CCRF-CEM leukemia, in the assay on COLO 205 colon, with M14 melanoma, in the assay on RXF 393 renal and with SNB-19 CNS was more than 100 µM throughout. Moreover, the TGI in the assay on U251 CNS and in the assay with UO-31 renal was more than 100 µM throughout.

In the case of `Oc1c2c(c(O)c3ccccc13)=N[C@@H](c1ccccc1)[C@H](c1ccccc1)N=2`, the TGI in the assay with A549 NSCLC, with CCRF-CEM leukemia, with M14 melanoma, with RXF 393 renal, in the assay on SNB-19 CNS and in the assay with SR leukemia was more than 100 µM each time. The TGI in the assay on U251 CNS and in the assay with UO-31 renal was more than 100 µM each time.

With `C=CC(=O)N1CCN(c2ncnc3c(F)c(-c4c(O)cccc4F)c(Cl)cc23)CC1`, the GI50 in the assay on A549 NSCLC was 18 µM; in the assay on CCRF-CEM leukemia it was 9.79 µM; in the assay with COLO 205 colon, 17.5 µM; in the assay with M14 melanoma it was 12.6 µM; in the assay on MDA-MB-231 breast, 14.3 µM; in the assay on RXF 393 renal it was 2.27 µM. For the same molecule, the GI50 with SNB-19 CNS is 14 µM; in the assay on U251 CNS, 13.2 µM; with UO-31 renal, 14.7 µM. Besides, the TGI was 40.7 µM in the assay with A549 NSCLC; more than 100 µM in the assay on CCRF-CEM leukemia; 37.5 µM with COLO 205 colon; 28.9 µM with M14 melanoma; 35.9 µM in the assay with MDA-MB-231 breast; 14.7 µM in the assay with RXF 393 renal. Further, the TGI came to 27.3 µM in the assay on SNB-19 CNS, 46.8 µM in the assay with U251 CNS and 29 µM in the assay on UO-31 renal.

With `COC(=O)NC/C=C\c1nc(CC/C=C\C(=O)OC2CC3CC(=O)O[C@@H](/C=C/CC(C)C)C[C@@H]4CCC(C)C(C[C@@H](OC)CC(C2)O3)O4)co1` (some centres not stated), the GI50 is less than 0.01 µM in the assay with COLO 205 colon; 7.36 µM with M14 melanoma; 4.43 µM in the assay on MDA-MB-231 breast; 34.4 µM in the assay with SNB-19 CNS; less than 0.01 µM in the assay with U251 CNS; 2.46 µM in the assay with UO-31 renal. Besides, the TGI in the assay with COLO 205 colon was 98.4 µM; with M14 melanoma it was more than 100 µM; in the assay with MDA-MB-231 breast, 47.6 µM; in the assay on SNB-19 CNS, more than 100 µM; with U251 CNS, 72.4 µM; with UO-31 renal it was 74.7 µM.

`CN(C)C(=S)/N=c1\ss/c(=N\S(=O)(=O)c2ccccc2)n1-c1ccccc1`: the TGI with A549 NSCLC, in the assay with CCRF-CEM leukemia, in the assay with M14 melanoma, in the assay on RXF 393 renal, in the assay on U251 CNS and in the assay on UO-31 renal was more than 100 µM throughout.

`CC(O)CN1C(=O)NC(Cc2ccccc2)C1=O` (configuration not stated): the TGI in the assay on A549 NSCLC, in the assay with COLO 205 colon, with M14 melanoma, in the assay with RXF 393 renal, with SNB-19 CNS and in the assay on SR leukemia was more than 100 µM each time. In addition, the TGI in the assay with U251 CNS and in the assay on UO-31 renal was more than 100 µM throughout.

Turning to `COc1cc2c3c(n(CCCN4CCC(N)CC4)c(=O)c2cc1OC)-c1cc2c(cc1C3=O)OCO2`, the GI50 in the assay with A549 NSCLC was 0.278 µM; in the assay on CCRF-CEM leukemia it was 0.129 µM; in the assay with COLO 205 colon it was 2.86 µM; in the assay with M14 melanoma, 1.34 µM; with MDA-MB-231 breast, 0.682 µM; with RXF 393 renal, 0.94 µM. For the same molecule, the results for the GI50 in the assay with SNB-19 CNS, in the assay on U251 CNS and in the assay with UO-31 renal were 1.46 µM, 0.307 µM and 2.32 µM, respectively. Further, the TGI in the assay on A549 NSCLC was 0.927 µM; in the assay with CCRF-CEM leukemia it was 0.681 µM; in the assay with COLO 205 colon, 7.38 µM; with M14 melanoma, 5.23 µM; with MDA-MB-231 breast it was 1.36 µM; with RXF 393 renal, 3.31 µM. The TGI amounted to 8.7 µM in the assay with SNB-19 CNS, 0.945 µM with U251 CNS and 16.5 µM in the assay on UO-31 renal.

Turning to `CCCS(=O)(=O)c1nc(NC2CC2)cc(-c2ccc3c(ccn3C3CC(C)(C)NC(C)(C)C3)c2)n1`, the GI50 with CCRF-CEM leukemia is 2.02 µM; in the assay with COLO 205 colon it was 1.84 µM; in the assay on M14 melanoma, 1.74 µM; in the assay on RXF 393 renal it was 1.64 µM; in the assay with SR leukemia, 0.256 µM; in the assay with UO-31 renal it was 1.6 µM. In addition, the TGI in the assay on CCRF-CEM leukemia is 4.8 µM; in the assay with COLO 205 colon it was 3.39 µM; in the assay on M14 melanoma, 3.24 µM; in the assay with RXF 393 renal, 3.44 µM; in the assay with SR leukemia, 0.784 µM; in the assay with UO-31 renal, 3.16 µM.

Regarding `COC(=O)c1c(O)ccc2[nH]c(C)c(C#N)c12`, the GI50 was 41.1 µM in the assay on A549 NSCLC; 88.5 µM with COLO 205 colon; 25.9 µM in the assay on M14 melanoma; 39.9 µM in the assay on MDA-MB-231 breast; 22 µM in the assay on RXF 393 renal; 77.7 µM in the assay with SNB-19 CNS. Besides, the GI50 in the assay on U251 CNS is 44.8 µM; in the assay on UO-31 renal, 33.9 µM. The TGI in the assay on A549 NSCLC, in the assay on COLO 205 colon, in the assay with M14 melanoma, in the assay on MDA-MB-231 breast, with RXF 393 renal and in the assay with SNB-19 CNS was more than 100 µM throughout. Further, the TGI with U251 CNS and in the assay with UO-31 renal was more than 100 µM in each case.

Source of the values: PubChem BioAssay (NCI).
